Measured values as given in patent US12539289B2, “Phorbol ester compositions and methods of use for treating or reducing the duration of cytopenia” (BIOSUCCESS BIOTECH CO., LTD., priority 2014, dated 2026).

Tested on: neutropenia and thrombocytopenia
Experiment: Phase 2a study of phorbol ester in AML patients who receive induction chemotherapy
Assay type: in vivo, human
Conditions: AML patients after 3+7 induction; TPA 0.125 mg/m^2 IV with G-CSF 400 μg support; standard deviation of 5 days; usual 20±3 days
Protocol: This is a single-arm, open label study. Ten (10) patients receive standard induction chemotherapy with idarubicin (12 mg/m2) or daunorubicin (60 mg/m2) on days 1, 2, 3 and Ara-C continuous (100-200 mg/m2/day) infusion on days 1-7. On Day 8 or 24 hours after completion of all scheduled Ara-C infusion, TPA is started at 0.125 mg/m^2 IV every two days, in addition to G-CSF (400 μg subcutaneously daily) support until absolute neutrophil count (ANC) above 1000/μL for two consecutive days.”
This study is designed to examine the efficacy of TPA as a supportive care agent to enhance bone marrow recovery in AML patients after induction chemotherapy. Study Objectives: • 1. Evaluate the safety and tolerability of TPA in AML patients after induction chemotherapy • 2. Evaluate preliminary efficacy in shortening of the duration of neutropenia and thrombocytopenia in AML patients after induction chemotherapy • 3. […] AML should be classified by FAB classification, and all subtypes are allowed and recorded during enrollment, except patients with M3 or acute promyelocytic leukemia. • 3. […]
Evaluation of neutropenia and thrombocytopenia after induction chemotherapy is done by daily hematological tests, including complete blood count and differential count. […] The duration of neutropenia and thrombocytopenia is assessed separately and the ANC and platelet counts should be plotted in a diagram for each patient. […]

CCCCCCCCCCCCCC(=O)O[C@@H]1[C@@H](C)[C@@]2(O)[C@@H](C=C(CO)C[C@]3(O)C(=O)C(C)=C[C@@H]23)[C@@H]2C(C)(C)[C@]12OC(C)=O [TPA, 12-O-tetradecanoylphorbol-13-acetate]
Duration of neutropenia or thrombocytopenia: 12 days
